Source: the supplement of paper PMC10307832

Assays:
Experiment in all cases: relative viability (nuclei count vs DMSO), 5 days (fraction); higher = more cells survive
Salubrinal + Dasatinib = compound: O=C(/C=C/c1ccccc1)NC(NC(=S)Nc1cccc2cccnc12)C(Cl)(Cl)Cl [Salubrinal] + Cc1nc(Nc2ncc(C(=O)Nc3c(C)cccc3Cl)s2)cc(N2CCN(CCO)CC2)n1 [Dasatinib] (partner 0.075 µM)
Summary of the method: (§1)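 Five library-drug doses in √10 steps were combined with a fixed anchor-drug dose, or a single drug was given alone, by pin tool to lung cancer cell lines in 1536-well plates the day after seeding. Nuclei were stained and counted after 5 days. Relative viability is the nuclei count in treated wells over that in vehicle wells, taken as the median of duplicate plates.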

[1] = compound: Cc1ccc2nc(NCCN)c3ncc(C)n3c2c1 + Nc1ncn([C@H]2C[C@H](O)[C@@H](CO)O2)c(=O)n1 [Decitabine] (partner 2 µM)
Summary of the method: as §1

Salubrinal + Luminespib = compound: O=C(/C=C/c1ccccc1)NC(NC(=S)Nc1cccc2cccnc12)C(Cl)(Cl)Cl [Salubrinal] + CCNC(=O)c1noc(-c2cc(C(C)C)c(O)cc2O)c1-c1ccc(CN2CCOCC2)cc1 [Luminespib] (partner 0.01 µM)
Summary of the method: as §1

[2] = compound: Cc1ccc2nc(NCCN)c3ncc(C)n3c2c1 + CC(C)C[C@H](NC(=O)[C@H](Cc1ccccc1)NC(=O)c1cnccn1)B(O)O [Bortezomib] (partner 0.002 µM)
Summary of the method: as §1

Cell Line	relative viability (Salubrinal + Dasatinib; first compound 0.08 µM)	relative viability (Salubrinal + Dasatinib; first compound 0.253 µM)	relative viability (Salubrinal + Dasatinib; first compound 0.8 µM)	relative viability (Salubrinal + Dasatinib; first compound 2.53 µM)	relative viability (Salubrinal + Dasatinib; first compound 8 µM)	relative viability ([1]; first compound 0.04 µM)	relative viability ([1]; first compound 0.1265 µM)	relative viability ([1]; first compound 0.4 µM)	relative viability ([1]; first compound 1.265 µM)	relative viability ([1]; first compound 4 µM)	relative viability (Salubrinal + Luminespib; first compound 0.08 µM)	relative viability (Salubrinal + Luminespib; first compound 0.253 µM)	relative viability (Salubrinal + Luminespib; first compound 0.8 µM)	relative viability (Salubrinal + Luminespib; first compound 2.53 µM)	relative viability (Salubrinal + Luminespib; first compound 8 µM)	relative viability ([2]; first compound 0.04 µM)	relative viability ([2]; first compound 0.1265 µM)	relative viability ([2]; first compound 0.4 µM)	relative viability ([2]; first compound 1.265 µM)	relative viability ([2]; first compound 4 µM)
LXF-289	0.173	0.241	0.234	0.236	0.15	0.388	0.409	0.365	0.353	0.423	0.74	0.595	0.569	0.727	0.643	1.01	0.97	0.987	0.984	0.994
NCI-H23	0.881	0.942	0.696	0.78	0.925	0.312	0.356	0.321	0.328	0.34	0.213	0.227	0.196	0.217	0.216	1.12	1.03	1.08	1.02	0.672
NCI-H322M	0.267	0.24	0.256	0.265	0.274	0.715	0.715	0.707	0.748	0.812	1.06	0.794	0.866	0.761	0.712	1.29	1.1	1.24	1.18	1.27
NCI-H441	0.781	0.5	0.756	0.65	0.47	0.235	0.245	0.191	0.26	0.235	0.312	0.39	0.393	0.338	0.385	0.72	0.463	0.423	0.533	0.438
NCI-H460	0.641	0.56	0.644	0.565	0.422	0.479	0.494	0.5	0.501	0.434	0.0402	0.0238	0.031	0.0302	0.0364	1.05	1.02	1.08	1.08	1.01
NCI-H520	0.252	0.236	0.292	0.231	0.292	0.488	0.466	0.439	0.529	0.503	0.255	0.218	0.279	0.217	0.203	0.656	0.544	0.464	0.568	0.36
NCI-H596	0.633	0.509	0.569	0.633	0.56	1.02	0.967	0.979	0.887	0.897	0.971	0.775	0.972	1.2	0.92	1.01	0.937	0.978	0.976	0.971
NCI-H647	0.168	0.203	0.235	0.243	0.137	0.508	0.362	0.43	0.421	0.335	0.208	0.243	0.27	0.356	0.154	0.943	0.783	0.999	0.864	0.707
